According to patent US20010034373A1, “Low dose modafinil for enhancement of cognitive function” (priority 2000, published 2001):
“Also recorded” adds a separate entry of the source.

Columns and labels:
[1] = tested on: aged male Wistar rats; conditions: rat, in vivo
[2] = tested on: aged rats; assay: performance of a stabilized delayed alternation task at three retention delays in aged rats; type: in vivo, rat; design: dose or concentration left out as unconfirmed; conditions: 15, 30 or 60 modafinil
Protocol: In another study, aged rats were tested for performance of a stabilized delayed alternation task at three retention delays. After stabilized performance in training sessions the rats were entered into a drug testing study with […] of modafinil. A trial started with the presentation of a single lever (left or right). […] After the expiration of the delay, the 2 levers were inserted into the chamber and the animal received a food pellet only if it pressed the lever not previously presented (delayed alternation). Incorrect responses (responses on the same lever) were not reinforced. The 3 delays were randomly presented and equally distributed throughout the session. Correct or incorrect responses were followed by retraction of the two levers. […] The test results indicated the response accuracy of the animal after each retention delay, the simple reaction time in the one lever presentation, and the choice reaction time in the two lever presentation. […] Therefore, modafinil had no effect on improving short term memory at these doses.

[3] = tested on: adult humans; assay: wakefulness promoting dose extrapolated to adult humans; type: in vivo, human; conditions: extrapolation in adult humans
Protocol: The dosage levels in rats in the studies described herein are reported in mg/kg administered by intraperitoneal injection (i.p.). As described in previous publications, the wakefulness promoting dose of modafinil in rats is highly significant at doses of 100 to 300 mg/kg i.p. (Edgar and Seidel, The Journal of Pharmacology and Experimental Therapeutics, vol. 283, pp 757-769, 1997). The extrapolation in adult humans is a wakefulness promoting dose of 200 mg/day. A dose of 200 mg to an adult human would result in a serum level of about 6.4 μg/ml. […] An effective dose, therefore, is a dose given as a single unit per day in a sustained release formula or given periodically would be that dose that maintains a serum level of from about 0.05 to about 2 μg/ml.

[4] = dose of 200 mg to an adult human; cited from earlier work

## NC(=O)C[S+]([O-])C(c1ccccc1)c1ccccc1 (centres unmarked) [Modafinil, 2-(benzhydrylsulfinyl) acetamide]
[1]
  choice reaction times: significantly decreased
  general ability of animals to perform the task: failed to improve
  number of correct responses: No effects
  number of correct responses (response accuracy): significantly increased
  number of response omissions: significantly increased
  simple reaction times: No clear effects; also recorded: tended to increase
[1]; 60 mg/kg
  cognitive function in aged rats: restored cognitive function in the aged rats to the level of the young control rats
[2]
  effect on improving short term memory: no effect
[2]; retention delays 5, 10 or 20 seconds
  number of correct responses at any retention delay: did not significantly affect
[3]
  wakefulness promoting dose: 200 mg/day
[4]
  serum level: about 6.4 μg/ml
